# Where two headings read alike, the source gives them in different places.
# Assays:
# Candida TS ("CTS") = Candida TS ("CTS") (Candida albicans, UniProt P12461); experiment: Thymidylate synthase inhibition constant Ki, Candida TS; assay type: biochemical
# Experimental: (§1) Thymidylate synthase inhibition constants Ki were determined by the following method. All assays were run at 25° C. and initiated by the addition of three different types of thymidylate synthase ("TS"): (1) Escherichia Coli TS ("ETS"); (2) Candida TS ("CTS"), a fungus; and (3) human TS ("HTS").
# (§2) All reaction mixtures contained 50 mM Tris at pH 7.8 (the final pH of the reaction was; 7.6), 10 mM DTT (dithiothreitol), 1 mM EDTA (ethylenediaminetetraacetic acid), 25 mM MgCl2, 15 mM H2 CO (formaldehyde) and 25 microM dUMP. When human TS was assayed, 100 micrograms/ml of BSA (bovine serum albumin) was present in the reactions. The range of THF (Tetrahydrofolate) was 5 to 150 microM (eight concentrations: 5, 6.6, 10, 13, 16, 25, 50 and 150 microM). A standard curve in the absence of inhibitor was run with each experiment. […] Charcoal was used to remove unreacted dUMP from the tritium release reaction mixtures, and the resultant water was counted to determine the extent of reaction.
# human TS ("HTS") = human TS ("HTS") (Homo sapiens, UniProt P04818); experiment: biochemical
# Experimental: as §1
# as §2, with “The range of THF (Tetrahydrofolate) was 5 to 150 microM (eight concentrations: 5, 6.6, 10, 13, 16, 25, 50 and 150 microM).” left out
# [1] = target: Escherichia Coli TS ("ETS") (Escherichia coli, UniProt P0A884); experiment: Thymidylate synthase inhibition constant Ki, Escherichia Coli TS; assay type: biochemical
# Experimental: as §1, §2
# [2] = test system: L1210 murine leukemia (ATCC CCL 219); experiment: cells; assay type: cell-based; settings: Mus musculus, L1210, 72 h, read-out: IC50 L1210
# [3] = test system: thymidine kinase deficient human adenocarcinoma line (GC3 /M TK^-); experiment: cells; assay type: cell-based; settings: GC3/MTK-, 120 h, read-out: IC50 GC3-M
# [4] = test system: CCRF-CEM, a human lymphoblastic leukemia line of T-cell origin (ATCC CCL 119); experiment: cells; assay type: cell-based; settings: 120 h, read-out: IC50 (CRFCEM)
# Chain of Escherichia Coli TS ("ETS") (P0A884 whole entry): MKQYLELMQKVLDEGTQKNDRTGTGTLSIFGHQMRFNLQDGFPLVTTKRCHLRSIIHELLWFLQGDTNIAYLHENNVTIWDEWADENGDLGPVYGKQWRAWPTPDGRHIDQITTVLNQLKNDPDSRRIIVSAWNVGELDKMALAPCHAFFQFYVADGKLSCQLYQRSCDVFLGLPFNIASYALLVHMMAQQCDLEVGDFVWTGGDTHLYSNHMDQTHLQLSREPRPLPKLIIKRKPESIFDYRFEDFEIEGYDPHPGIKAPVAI
# Chain of human TS ("HTS") (P04818 whole entry): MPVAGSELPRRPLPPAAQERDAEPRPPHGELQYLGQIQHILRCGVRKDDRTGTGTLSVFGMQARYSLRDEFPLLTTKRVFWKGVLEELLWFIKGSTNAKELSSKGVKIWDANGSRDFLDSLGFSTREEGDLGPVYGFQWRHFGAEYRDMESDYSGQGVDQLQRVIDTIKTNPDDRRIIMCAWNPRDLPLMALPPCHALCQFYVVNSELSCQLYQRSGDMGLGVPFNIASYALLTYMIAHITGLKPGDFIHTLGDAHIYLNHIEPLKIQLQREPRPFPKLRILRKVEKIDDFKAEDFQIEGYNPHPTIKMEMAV
# Chain of Candida TS ("CTS") (P12461 whole entry): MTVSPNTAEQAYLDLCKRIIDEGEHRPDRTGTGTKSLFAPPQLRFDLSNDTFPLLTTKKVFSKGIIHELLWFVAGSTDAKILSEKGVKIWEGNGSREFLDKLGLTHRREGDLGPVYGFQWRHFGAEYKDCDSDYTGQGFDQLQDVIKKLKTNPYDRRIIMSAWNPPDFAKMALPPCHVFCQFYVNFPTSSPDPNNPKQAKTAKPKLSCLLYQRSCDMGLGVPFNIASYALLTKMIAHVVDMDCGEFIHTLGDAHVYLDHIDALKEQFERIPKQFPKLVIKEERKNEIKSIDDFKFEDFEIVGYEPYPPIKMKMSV
structure (smiles),measurement,setting,value
"CCN(Cc1ccc(S(=O)(=O)c2ccccc2)cc1)c1ccc2c3c(cccc13)CN2 [Compound 41, N-[4-(phenylsulfonyl)benzyl]-N-ethyl-6-amino-dihydrobenz[cd]indole]",Ki,"Candida TS (""CTS"")",> 10 µM
same,Ki,"human TS (""HTS"")",12 ± 3 µM
same,Ki,[1],> 5 µM
"CSCN(Cc1ccc(S(=O)(=O)c2ccccc2)cc1)c1ccc2c3c(cccc13)C(=O)N2 [Compound 24, N-[4-(Phenylsulfonyl)benzyl]-N-methylthiomethyl-6-aminobenz[cd]indol-2(1H)-one]",IC50,[2],2.1 µM
same,Ki,"Candida TS (""CTS"")",> 1 µM
same,IC50,[3],> 10 µM
same,Ki,"human TS (""HTS"")",3.9 ± 1.7 µM
same,IC50,[4],2.8 µM
same,Ki,[1],> 1 µM
"CCCN(Cc1ccc(S(=O)(=O)N2CCNCC2)cc1)c1ccc2c3c(cccc13)C(=O)N2 [Compound 19, N-[4-(N,N-Piperazinylsulfamoyl)benzyl]-N-propyl-6-aminobenz[cd]indol-2(1H)-one]",IC50,[2],2.9 µM
same,Ki,"Candida TS (""CTS"")",> 10 µM
same,IC50,[3],5.4 µM
same,Ki,"human TS (""HTS"")",12 ± 4 µM
same,IC50,[4],3.1 µM
same,Ki,[1],> 20 µM
"CN(Cc1ccc(CO)c2ccccc12)c1ccc2c3c(cccc13)C(=O)N2 [Compound 31, N-[4-Hydroxymethyl-1-naphthobenzyl]-N-methyl-6-aminobenz[cd]indol-2(1H)-one]",IC50,[2],0.8 µM
same,Ki,"Candida TS (""CTS""); read-out: Ki CTS, 25° C., against 5,10-methylene-tetrahydrofolate, 25 microM dUMP",> 2 µM
same,IC50,[3],4 µM
same,Ki,"human TS (""HTS"")",10 ± 1 µM
same,IC50,[4],3 µM
same,Ki,"[1]; read-out: Ki ETS, 25° C., against 5,10-methylene-tetrahydrofolate, 25 microM dUMP",> 2 µM
"CCN(Cc1ccc(S(=O)(=O)c2ccccc2)cc1)c1ccc2c3c(cccc13)C(=O)N2 [Compound 8, N-[4-(phenylsulfonyl)benzyl]-N-ethyl-6-aminobenz[cd]indol-2(1H)-one]",IC50,[2],3.05 µM
same,Ki,"Candida TS (""CTS"")",> 1 µM
same,IC50,[3],> 3.33 µM
same,Ki,"human TS (""HTS"")",1.2 ± 0.4 µM
same,IC50,[4],> 3.33 µM
same,Ki,[1],> 1 µM
"CN(Cc1ccc2cc(CO)ccc2c1)c1ccc2c3c(cccc13)C(=O)N2 [Compound 47, N-(6-Hydroxymethyl-2-naphthobenzyl)-N-methyl-6-aminobenz[cd]indol-2(1H)-one]",IC50,[2],1.7 µM
same,Ki,"Candida TS (""CTS"")",> 10 µM
same,IC50,[3],> 4 µM
same,Ki,"human TS (""HTS"")",20 ± 10 µM
same,IC50,[4],> 4 µM
same,Ki,[1],> 10 µM
"O=C1Nc2ccc(N(CCCO)Cc3ccc(S(=O)(=O)N4CCNCC4)cc3)c3cccc1c23 [Compound 40, N-[4-(N,N-Piperazinylsulfamoyl)benzyl]-N-hydroxypropyl-6-aminobenz[cd]indol-2-(1H)-one]",IC50,[2],21.5 µM
same,Ki,"Candida TS (""CTS"")",> 10 µM
same,IC50,[3],30 µM
same,Ki,"human TS (""HTS"")",11 ± 5 µM
same,IC50,[4],15 µM
same,Ki,[1],> 10 µM
CN(Cc1ccc(S(=O)(=O)c2ccccc2)cc1)c1ccc2c3c(cccc13)C(=O)N2 [Compound 29],IC50,[3],> 5 µM
"O=C1Nc2ccc(N(CCO)Cc3ccc(S(=O)(=O)N4CCNCC4)cc3)c3cccc1c23 [Compound 16, N-[4-(N,N-Piperazinylsulfamoyl)benzyl]-N-hydroxyethyl-6-aminobenz[cd]indol-2(1H)-one]",IC50,[2],50 µM
same,Ki,"Candida TS (""CTS"")",11 ± 7 µM
same,IC50,[3],> 50 µM
same,Ki,"human TS (""HTS"")",0.87 ± 0.19 µM
same,IC50,[4],31 µM
same,Ki,[1],14 ± 7 µM
"CCN(Cc1ccc(S(=O)(=O)N2CCNCC2)cc1)c1ccc2c3c(cccc13)C(=S)N2 [Compound 6, N-^6 -Ethyl-N^6 [(4-N,N-piperazinyl)sulfamoyl]benzyl-6-aminobenz[cd]indol-2(1H)-thione]",IC50,[2],2.1 µM
same,Ki,"Candida TS (""CTS"")",23 ± 15 µM
same,IC50,[3],> 5 µM
same,Ki,"human TS (""HTS"")",3.4 ± 0.4 µM
same,IC50,[4],3.5 µM
same,Ki,[1],50 ± 9 µM
CCN(Cc1ccc(S(=O)(=O)c2ccccc2)cc1)c1ccc2c3c(cccc13)C(N)=N2 [Compound 34],IC50,[2],0.7 µM
same,Ki,"Candida TS (""CTS"")",0.38 ± 0.11 µM
same,IC50,[3],3 µM
same,Ki,"human TS (""HTS"")",0.075 ± 0.037 µM
same,IC50,[4],1.25 µM
same,Ki,[1],10 ± 6 µM
"CC(C)N(Cc1ccc(S(=O)(=O)N2CCNCC2)cc1)c1ccc2c3c(cccc13)C(=O)N2 [Compound 22, N-[4-(N,N-piperazinylsulfamoyl)benzyl]-N-isopropyl-6-aminobenz[cd]indol-2(1H)-one]",IC50,[2],3.9 µM
same,Ki,"Candida TS (""CTS"")",43 ± 9 µM
same,IC50,[3],5.9 µM
same,Ki,"human TS (""HTS"")",4.9 ± 0.7 µM
same,IC50,[4],6.8 µM
same,Ki,[1],23 ± 7 µM

# Reference: patent US5574039A, “Antiproliferative compounds having nitrogen-containing tricyclic ring systems and phenyl substituents” (Agouron Pharmaceuticals, Inc., priority 1994, dated 1996)
